Tests used:
[1] = Fluorescence quenching counter-screen; assay type: physicochemical; settings: 10 μM fluorophore; 32 nM-100 μM compound
Description: Selected test compounds were assessed for fluorescence quenching using adaptions of previously published procedures[9],[24]. Briefly, test compounds and individual fluorophore standards were incubated together. The fluorescence intensity of these mixtures was compared to the fluorescence intensity of the same fluorophore standards minus test compounds. Each microplate contained positive control columns (DMSO plus fixed concentration of a single fluorophore), negative control columns (DMSO), and experimental wells (test compounds plus fixed concentration of a single fluorophore). […] Final concentration of DMSO was constant at 2.0% (v/v). […] All measurements were performed in ALARM NMR buffer (25 mM sodium phosphate, pH 7.0) at 25 °C. Aliquots of 20 μL buffer were dispensed into microplate wells via ThermoFisher Multidrop dispenser. Microplates were shaken for 1 min on a plate shaker, centrifuged briefly for 1 min at 1000×g, then allowed to incubate at RT for 10 min before measuring fluorescence intensity on a SpectraMax M3 plate reader under reduced lighting. Instrument settings for each fluorophore were unchanged from the aforementioned autofluorescence studies.

[2] = Autofluorescence counter-screen; assay type: physicochemical; settings: autofluorescence at eight fluorophore settings; 32 nM-100 μM compound
Description: Selected test compounds were assessed for autofluorescence using an adaption of published procedures. […] Final concentration of DMSO was constant at 1.0% (v/v). Compounds and fluorophore standards were transferred as 10 mM DMSO stock solutions to 384-well black polystyrene microplates via Echo 550 dispenser. The plate arrangement was purposefully designed to minimize optical crosstalk by fluorophore standards. All measurements were performed in ALARM NMR buffer (25 mM sodium phosphate, pH 7.0) at 25 °C. Aliquots of 20 μL buffer were dispensed into microplate wells via ThermoFisher Multidrop dispenser. Compounds were shaken for 1 min on a plate shaker, centrifuged briefly for 1 min at 1000×g, then allowed to incubate at RT in buffer for 10 min before measuring fluorescence intensity on a SpectraMax M3 plate reader under reduced lighting. […] Bandwidth filters were set to default mode. Fluorescence intensity was measured for each test compound using each of the eight fluorophore standard settings. Fluorophores present on each plate were then used to construct normalized fluorescence dose-responses (“fluorophore-equivalent concentrations”, FEC). Fluorescence intensity for each test compound was converted to the appropriate FEC.

AmpC β-lactamase = biological target: T1, AmpC β-lactamase (Escherichia coli, UniProt P00811); assay: biochemical; design: species or system E. coli; settings: for AmpC aggregation counter-screen / AmpC counter-screen result: 10 μM compound; for AmpC aggregation counter-screen: ± 0.01% Triton X-100; for inhibition at 10 µM: read-out: % Inhibition, AmpC; for AmpC counter-screen result: detergent-sensitive modulation
T1 construct: Recombinant E. coli AmpC (amino acids 20–377); purchased MyBioSource.com
T1 sequence (P00811 20-377): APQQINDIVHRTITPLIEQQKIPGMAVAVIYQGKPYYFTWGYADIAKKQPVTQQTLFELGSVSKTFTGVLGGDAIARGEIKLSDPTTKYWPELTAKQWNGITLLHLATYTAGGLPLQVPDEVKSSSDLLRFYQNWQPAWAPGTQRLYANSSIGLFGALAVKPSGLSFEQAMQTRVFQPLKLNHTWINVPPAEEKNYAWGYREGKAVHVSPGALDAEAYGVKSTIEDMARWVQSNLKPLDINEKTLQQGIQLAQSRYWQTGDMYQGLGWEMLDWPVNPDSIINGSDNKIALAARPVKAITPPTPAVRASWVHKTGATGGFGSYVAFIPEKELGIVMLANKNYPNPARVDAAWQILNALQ
Description: Selected compounds were assessed for aggregation using a modified AmpC β-lactamase counter-screen[24],[32],[64]. Recombinant E. coli AmpC (amino acids 20–377) was obtained from MyBioSource.com. Testing was performed in ALARM NMR buffer (25 mM sodium phosphate, pH 7.0) in flat-bottom UV-transparent 96-well microplates in 150 μL reaction volumes. Compounds were tested in triplicate at 10 μM final concentrations in either the presence or absence of freshly-prepared 0.01% Triton X-100 (v/v). Final concentration of DMSO was 2.0% (v/v). Compounds were incubated with ~5 nM AmpC in 147 μL reaction buffer for 5 min at RT, followed by the addition of 3 μL of nitrocefin substrate (100 μM final concentration). Reaction solutions were gently mixed by pipetting up and down three times using a multichannel pipette. […] Percent activity was normalized to DMSO-only controls. Fluconazole and lidocaine were included as negative aggregation control compounds. Rottlerin was included as a positive aggregation control compound. Aggregators were defined as compounds with significant detergent-dependent changes in AmpC activity (t-test, adjusted P-value <0.05; mean differences greater than 30%). Activators were defined as compounds that increased AmpC enzymatic activity.

Absorbance spectra = assay type: physicochemical; settings: for Absorption max (nm) / Absorbance counter-screen: 25 mM sodium phosphate, pH 7.0; for Absorbance counter-screen: 300-750 nm; for Molar absorptivity: at absorption max
Description: Selected test compounds were assessed for absorption between 300 and 750 nm. Most compound absorption spectra were obtained at 100, 50, and 10 μM final compound concentrations in ALARM NMR buffer (25 mM sodium phosphate, pH 7.0). Final concentration of DMSO was constant at 2.0% (v/v). Compounds were allowed to incubate at RT in buffer for 10 min in UV-transparent polystyrene 384-well plates. Absorbance spectra were then obtained on a SpectraMax M3 or BMG Labtech CLARIOstar microplate reader at 25 °C. Significant absorbance was defined as molar absorptivity constants greater than 2000 M^−1 cm^−1 at wavelengths greater than 300 nm.

[3] = UPLC-MS gross compound stability in assay buffer; settings: 25 mM sodium phosphate, pH 7.0, 30 °C, no GSH or CoA
Description: Select compounds were incubated up to 24 h for additional stability analyses. Chromatograms and mass spectra were qualitatively analyzed for the formation of new peaks and/or loss of parent peaks.

| Compound | Quenching counter-screen [1] | Fluorescence counter-screen [2] | AmpC aggregation counter-screen (AmpC β-lactamase) | Absorption max (nm) (Absorbance spectra) | Absorbance counter-screen (Absorbance spectra) | inhibition at 10 µM (AmpC β-lactamase) [%] | Molar absorptivity (Absorbance spectra) [M⁻¹ cm⁻¹] | UPLC-MS buffer stability counter-screen [3] | AmpC counter-screen result (AmpC β-lactamase) |
| --- | --- | --- | --- | --- | --- | --- | --- | --- | --- |
| CCCCCCCCCCCCCCCc1cccc(O)c1C(=O)O [Compound 14, Anacardic acid] | Flagged (Significant fluorescence quenching was defined as signal reduction greater than 25% of the corresponding fluorophore signal at any test compound concentration) | Negative | Detergent-sensitive (Aggregators were defined as compounds with significant detergent-dependent changes in AmpC activity (t-test, adjusted P-value <0.05; mean differences greater than 30%)) | 305 nm | Negative |  |  |  |  |
| COc1cc(/C=C/c2cc(/C=C/c3ccc(O)c(OC)c3)n(-c3ccc(C(=O)[O-])cc3)n2)ccc1O.[Na+] [Compound 17, CTK7A] | Flagged (Significant fluorescence quenching was defined as signal reduction greater than 25% of the corresponding fluorophore signal at any test compound concentration) | Negative | Detergent-sensitive (activator) | 325 nm | Flagged (Significant absorbance was defined as molar absorptivity constants greater than 2000 M^−1 cm^−1 at wavelengths greater than 300 nm) | -52 ± 35 | 30000 |  |  |
| O=C(O[C@@H]1Cc2c(O)cc(O)cc2O[C@@H]1c1cc(O)c(O)c(O)c1)c1cc(O)c(O)c(O)c1 [Compound 10, (-)-Epigallocatechin gallate] | Flagged (Significant fluorescence quenching was defined as signal reduction greater than 25% of the corresponding fluorophore signal at any test compound concentration) | Negative | Detergent-insensitive | 290 nm | Negative |  |  | Gross degradation observed; loss of parent peak, appearance of new peaks |  |
| Cc1cc2c(C(C)C)c(O)c(O)c(C=O)c2c(O)c1-c1c(C)cc2c(C(C)C)c(O)c(O)c(C=O)c2c1O [Compound 16, Gossypol] | Flagged (Significant fluorescence quenching was defined as signal reduction greater than 25% of the corresponding fluorophore signal at any test compound concentration) | Negative | Detergent-sensitive (Aggregators were defined as compounds with significant detergent-dependent changes in AmpC activity (t-test, adjusted P-value <0.05; mean differences greater than 30%)) | 385 nm | Flagged (Significant absorbance was defined as molar absorptivity constants greater than 2000 M^−1 cm^−1 at wavelengths greater than 300 nm) |  | 22000 |  |  |
| COc1ccc(/C(Cl)=C(/C=O)c2ccc(OC)cc2)cc1 [Compound 18, Windorphen] | Flagged (Significant fluorescence quenching was defined as signal reduction greater than 25% of the corresponding fluorophore signal at any test compound concentration) | Negative | Detergent-insensitive | 345 nm | Flagged (Significant absorbance was defined as molar absorptivity constants greater than 2000 M^−1 cm^−1 at wavelengths greater than 300 nm) |  | 4300 | Grossly stable |  |
| CCCCCCCc1ccc(CCc2cccc(O)c2C(=O)O)cc1 [Compound 15, MG 149] | Flagged (Significant fluorescence quenching was defined as signal reduction greater than 25% of the corresponding fluorophore signal at any test compound concentration) | Negative | Detergent-insensitive | 300 nm | Negative |  |  |  | negative |
| CC1=NN(c2ccc(C(=O)O)cc2)C(=O)/C1=C/c1ccc(-c2cc(C)c(C)cc2[N+](=O)[O-])o1 [Compound 1, C646] | Flagged (Significant fluorescence quenching was defined as signal reduction greater than 25% of the corresponding fluorophore signal at any test compound concentration) | Negative | Detergent-sensitive (activator) | 405 nm | Flagged (Significant absorbance was defined as molar absorptivity constants greater than 2000 M^−1 cm^−1 at wavelengths greater than 300 nm) | -58 ± 56 | 18000 | Gross degradation observed; loss of parent peak, appearance of new peaks | likely aggregators |
| Clc1ccc(-c2csc(NN=C3CCCC3)n2)cc1 [Compound 7, CPTH2] | Flagged (Significant fluorescence quenching was defined as signal reduction greater than 25% of the corresponding fluorophore signal at any test compound concentration) | Negative | Detergent-sensitive (Aggregators were defined as compounds with significant detergent-dependent changes in AmpC activity (t-test, adjusted P-value <0.05; mean differences greater than 30%)) | 285 nm | Negative |  |  | Gross degradation observed; loss of parent peak, appearance of new peaks | likely aggregators |
| CCCC1(c2ccccc2)NC(=O)N(CC(=O)N(C)Cc2c(F)cccc2Cl)C1=O (centres unmarked) [Compound 21, N-[(2-chloro-6-fluorophenyl)methyl]-2-(2,5-dioxo-4-phenyl-4-propylimidazolidin-1-yl)-N-methylacetamide] | Flagged (Significant fluorescence quenching was defined as signal reduction greater than 25% of the corresponding fluorophore signal at any test compound concentration) | Negative | Detergent-insensitive | Nominal | Negative |  |  | Grossly stable |  |
| Garcinol [Compound 13] | Flagged (Significant fluorescence quenching was defined as signal reduction greater than 25% of the corresponding fluorophore signal at any test compound concentration) | Negative | Detergent-sensitive (Aggregators were defined as compounds with significant detergent-dependent changes in AmpC activity (t-test, adjusted P-value <0.05; mean differences greater than 30%)) | 290 nm | Negative |  |  |  |  |
| Cl.Cl.O=C(O)Cn1nnc(-c2ccc(CN(CCCCOc3ccc(CN4CCCC4)cc3)CCc3ccccc3)cc2)n1 [Compound 20, TH1834] | Flagged (Significant fluorescence quenching was defined as signal reduction greater than 25% of the corresponding fluorophore signal at any test compound concentration) | Negative | Detergent-sensitive (activator) | Nominal | Negative | -63 ± 26 |  |  | likely aggregators |

Source: paper PMC5688144, “Assay interference and off-target liabilities of reported histone acetyltransferase inhibitors” (Nature Communications, 2017)
